Measured values reported in publication PMC13702766, “Pharmacokinetic-Modifying Linker Design Modulates Performance of Multivalent PSMA/GRPR-Cell-Targeting ^177Lu Radiopharmaceuticals” (Cancers, 2026).

Biological target: T1, PSMA (Homo sapiens, UniProt Q04609)
T1 construct: LNCaP whole cells were prepared in suspension; host or cells: LNCaP human prostate carcinoma cells
Experiment: Whole-cell competitive binding assay in PSMA[+] LNCaP cells vs [177Lu]Lu-PSMA-617
Procedure: LNCaP whole cells were prepared in suspension (7.50 × 10^5 cells/mL) in binding media (DMEM + 0.2% BSA + 25 mM HEPES). […] Samples were incubated at room temperature for 60 min, centrifuged, and the supernatant was removed. Cell pellets were washed twice with ice-cold PBS and subsequently counted using an automated gamma counter. […] IC50 values were determined by nonlinear regression in GraphPad Prism, with all experiments performed in triplicate.

T1 sequence (Q04609 whole entry): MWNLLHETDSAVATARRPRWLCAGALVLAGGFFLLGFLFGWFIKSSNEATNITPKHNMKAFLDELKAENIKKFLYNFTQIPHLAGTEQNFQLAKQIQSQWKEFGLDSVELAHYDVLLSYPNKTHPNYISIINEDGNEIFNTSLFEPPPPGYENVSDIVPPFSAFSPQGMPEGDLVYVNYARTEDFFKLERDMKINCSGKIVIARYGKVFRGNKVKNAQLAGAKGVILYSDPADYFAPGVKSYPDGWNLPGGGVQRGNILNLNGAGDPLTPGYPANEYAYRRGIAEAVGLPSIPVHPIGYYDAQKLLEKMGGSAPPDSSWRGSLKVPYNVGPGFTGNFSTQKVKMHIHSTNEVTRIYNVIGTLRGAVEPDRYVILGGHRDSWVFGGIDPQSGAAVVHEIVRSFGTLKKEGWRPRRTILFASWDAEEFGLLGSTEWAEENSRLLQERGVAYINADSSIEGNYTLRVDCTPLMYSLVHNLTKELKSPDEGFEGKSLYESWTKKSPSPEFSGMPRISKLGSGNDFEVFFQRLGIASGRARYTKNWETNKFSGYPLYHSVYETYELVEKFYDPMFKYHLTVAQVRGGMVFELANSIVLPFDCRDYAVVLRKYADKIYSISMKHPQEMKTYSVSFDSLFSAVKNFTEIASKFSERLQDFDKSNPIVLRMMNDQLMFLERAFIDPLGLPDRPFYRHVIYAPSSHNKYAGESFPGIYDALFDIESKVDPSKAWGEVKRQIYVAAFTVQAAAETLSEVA

- IC50: 2.7 ± 0.1 nM
SMILES: O=C(O)CC[C@H](NC(=O)N[C@@H](CCCCNC(=O)[C@H](Cc1ccc2ccccc2c1)NC(=O)[C@H]1CC[C@H](CNC(=O)CN2CCN(CC(=O)O)CCN(CC(=O)O)CCN(CC(=O)O)CC2)CC1)C(=O)O)C(=O)O [PSMA-617]
